Assay results reported in patent publication US10632144B2, “Low polydispersity, low molecular weight biotechnological chondroitin sulfate with anti-inflammatory and antiarthritis activity and use thereof in the prevention of osteoarthritis” (Gnosis S.p.A., priority 2012, dated 2020).

Legend:
[1] = test system: rats with Adjuvant Arthritis (AA); assay: Adjuvant arthritis (AA) in rats: change in body weight; format: in vivo, male Lewis rats; details: for increase in body weight relative to that of the healthy controls: 900 mg/kg/day, end of the study
Description: (§1) AA was induced by a single intradermal injection of Mycobacterium butyricum in […] Freund's adjuvant. The study involved one group of healthy animals (HC), one group of untreated arthritic animals (AC) and two groups of arthritic animals treated with two different regimens. The first treatment regimen involved pre-treatment consisting of administration of 900 mg/kg of biotechnological CS a day for 14 days before arthritis was induced, continuing for 28 days after the induction of AA (PT). The second treatment regimen involved the administration of 900 mg/kg of biotechnological CS a day only during the 28 days after induction of AA (T).
(§2) 40 male Lewis rats weighing between 150 and 190 g were divided at random into four groups of 10 animals each, housed in polypropylene cages in an environment maintained at the temperature of 22±2° C., and fed on a standard laboratory diet with unlimited access to water.
(§3) The experimental groups were as follows:
(§4) 3) A group of arthritic rats orally treated with biotechnological CS at the dose of 900 mg/day per kg of body weight for 28 days after induction of AA (days 0-28 of the experiment) (T).
(§5) 4) A group orally pre-treated with biotechnological CS at the dose of 900 mg/day per kg of body weight for 14 days preceding the induction of AA, and for the 28 days after induction of AA (days −14 to 28 of the experiment) (PT).
(§6) The CS of the invention was dissolved in distilled water at the concentration of 20 mg/ml and administered orally as a single daily dose by gavage.
The body weight of the rats was measured before induction of AA (day 0), on days 7, 14 and 21, and at the end of the treatment (day 28). The effect of the treatment on this parameter was evaluated by comparing the weight increases of the different groups during the treatment period.

[2] = test system: rats with Adjuvant Arthritis (AA); assay: Adjuvant arthritis (AA) in rats: hind paw oedema; format: in vivo, male Lewis rats
Description: as §1, §2, §3, §4, §5, §6
The oedema that developed as a consequence of arthritis was measured by observing the increase in volume of the hind paw with a caliper suitable for the measurement. The measurements were performed before the induction of AA (day 0) and on days 7, 14, 21 and 28 of the study.
The data were expressed as the percentage increase in oedema calculated with the following formula: [(Dayn/Day0)×100]−100, Day0 being the measurement on the initial day and Dayn the measurement on the day considered.

[3] = test system: rats with Adjuvant Arthritis (AA); assay: Adjuvant arthritis (AA) in rats: arthritis score; format: in vivo, male Lewis rats; design: key to Arthritis score: sum of oedema (1-8), forepaw diameter (1-5), scab diameter (1-5) scores
Description: as §1, §2, §3, §4, §5, §6
The arthritis score was evaluated by allocating a score to the observation of paw joint swelling (oedema), the extent of periarticular erythema and the diameter of the scab at the adjuvant injection site at the base of the tail. The arthritis score or arthrogram was measured as the sum total of oedema (in ml, score 1 to 8), plus the diameter of the forepaw (in mm, max score 1 to 5), plus the diameter of the scab at the site of application of Mycobacterium butyricum measured parallel to the spinal column (in mm, max score 1 to 5), for each animal.

interleukin-6 (IL-6) = assay: AA rat model, biotech vs animal LMW-CS: IL-6 plasma levels; format: in vivo, male Lewis rats
Description: (§7) As described in Example 5, commercial (high-molecular-weight) chondroitin sulfate material was subjected to depolymerization according to Cho, under controlled condition, until the desired mean MW was reached.
(§8) The product of Example 5 was tested in vivo vs. biotechnological chondroitin of the invention obtained as described in Ex. 4 (equivalent to the product obtained from any of the Examples 1, 2 or 3).
(§9) Two key parameters were analyzed to determine the efficacy of the treatment in reducing the inflammation related to osteoarthritis: C reactive protein (CRP) and interleukin-6 (IL-6) plasma levels. […] CRP is another important marker for systemic inflammation, its plasmatic level rises up during arthritis progression. AA was induced in male Lewis rats with a single intradermal injection of heat-inactivated Mycobacterium butyricum in […] Freund's adjuvant. The following anti-osteoarthritic treatment consisted in daily oral (900 mg/kg b.w.) administrations of LMW-CS starting from day 0, i.e. the day of bacterial inoculation.

C reactive protein (CRP) = assay: AA rat model, biotech vs animal LMW-CS: CRP plasma levels; format: in vivo, male Lewis rats
Description: as §7, §8, §9

[4] = test system: auxotrophic strains of E. coli; assay: Bacterial reverse mutation test (OECD 471); format: cell-based
Description: (§10) The CS according to the invention was also tested for its toxicological safety in animals and on cell cultures according to various protocols designed to assess its potential genotoxicity at cell level and acute oral toxicity in the rat. All the tests used were validated and conducted according to OECD guidelines for pharmaceutical products.
(§11) The biotechnological CS was subjected to mutagenesis tests in bacterial cells (bacterial reverse mutation, Ref. OECD 471) which tested the ability of the product to induce the appearance of reverse mutants in auxotrophic strains of E. coli and Salmonella typhimurium.

[5] = test system: auxotrophic strains of Salmonella typhimurium; assay: Bacterial reverse mutation test (OECD 471); format: cell-based
Description: as §10, §11

Sprague-Dawley rats = assay: Acute toxicity after oral administration; format: in vivo; details: up to 2000 mg/kg body weight
Description: as §10
Finally, acute toxicity after oral administration was examined in Sprague-Dawley rats up to the dose of 2000 mg/kg of body weight.

[6] = Pre-Treatment (PT): 900 mg/kg/day oral, days −14 to 28, day 0
[7] = Pre-Treatment (PT): 900 mg/kg/day oral, days −14 to 28, day 7
[8] = Pre-Treatment (PT): 900 mg/kg/day oral, days −14 to 28, day 14
[9] = Pre-Treatment (PT): 900 mg/kg/day oral, days −14 to 28, day 21
[10] = Pre-Treatment (PT): 900 mg/kg/day oral, days −14 to 28, day 28
[11] = Treatment (T): 900 mg/kg/day oral, days 0-28, day 0
[12] = Treatment (T): 900 mg/kg/day oral, days 0-28, day 7
[13] = Treatment (T): 900 mg/kg/day oral, days 0-28, day 14
[14] = Treatment (T): 900 mg/kg/day oral, days 0-28, day 21
[15] = Treatment (T): 900 mg/kg/day oral, days 0-28, day 28
[16] = daily oral 900 mg/kg b.w. from day 0, day 14
[17] = daily oral 900 mg/kg b.w., 14 days of treatment

Low-molecular-weight chondroitin sulfate sodium salt [LMW-CS]
Change in body weight: Δ(dayn − day0) [1, 6]: 0.0 g
Change in body weight: Δ(dayn − day0) [1, 7]: 92.96 g
Change in body weight: Δ(dayn − day0) [1, 8]: 107.26 g
Change in body weight: Δ(dayn − day0) [1, 9]: 93.39 g
Change in body weight: Δ(dayn − day0) [1, 10]: 108.63 g
increase in body weight relative to that of the healthy controls ([1]; Pre-treatment (PT)): 73%
Change in body weight: Δ(dayn − day0) [1, 11]: 0.0 g
Change in body weight: Δ(dayn − day0) [1, 12]: 85.19 g
Change in body weight: Δ(dayn − day0) [1, 13]: 89.19 g
Change in body weight: Δ(dayn − day0) [1, 14]: 68.39 g
Change in body weight: Δ(dayn − day0) [1, 15]: 79.78 g
increase in body weight relative to that of the healthy controls ([1]; Treatment alone (T)): 54%
Change in hind paw swelling: [(Dayn/Day0) × 100] − 100 [2, 6]: 0.0%
Change in hind paw swelling: [(Dayn/Day0) × 100] − 100 [2, 7]: 15.4%
Change in hind paw swelling: [(Dayn/Day0) × 100] − 100 [2, 8]: 26.7%
Change in hind paw swelling: [(Dayn/Day0) × 100] − 100 [2, 9]: 46.5%
Change in hind paw swelling: [(Dayn/Day0) × 100] − 100 [2, 10]: 49.7%
oedema developed in the hind paw vs untreated controls ([2]; Pre-treated animals (PT), 900 mg/kg/day): significantly reduced
Change in hind paw swelling: [(Dayn/Day0) × 100] − 100 [2, 11]: 0.0%
Change in hind paw swelling: [(Dayn/Day0) × 100] − 100 [2, 12]: 13.1%
Change in hind paw swelling: [(Dayn/Day0) × 100] − 100 [2, 13]: 34.5%
Change in hind paw swelling: [(Dayn/Day0) × 100] − 100 [2, 14]: 62.8%
Change in hind paw swelling: [(Dayn/Day0) × 100] − 100 [2, 15]: 61.4%
Arthritis score [3, 6]: 10.0
Arthritis score [3, 7]: 10.1
Arthritis score [3, 8]: 13.1
Arthritis score [3, 9]: 15.8
Arthritis score ([3]; Pre-Treatment (PT): 900 mg/kg/day oral, days −14 to 28, day 28, listed as biotechnological CS, sulfate sodium salt): 19
Arthritis score ([3]; Pre-Treatment (PT): 900 mg/kg/day oral, days −14 to 28, day 28, sulfate sodium salt): 19.0
Arthritis score [3, 11]: 10.0
Arthritis score [3, 12]: 10.0
Arthritis score [3, 13]: 18.1
Arthritis score [3, 14]: 22.7
Arthritis score [3, 15]: 23.0
influence on arthritis score during the study period ([3]; Treatment-only (T) group, 900 mg/kg/day): did not significantly influence
IL-6 plasma levels (interleukin-6 (IL-6); [16]): 233.9 pg/mL
effect of treatment on IL-6 plasma levels (interleukin-6 (IL-6); [17]): decreased
CRP plasma levels (C reactive protein (CRP); [16]): 548.8 µg/mL
effect of treatment on CRP plasma levels (C reactive protein (CRP); [17]): decreased
bacterial mutagenicity (reverse mutants) [4]: No significant increase
bacterial mutagenicity (reverse mutants) [5]: No significant increase
clinical signs (Sprague-Dawley rats; 14 days observation): did not show any clinical signs of suffering
mortality (Sprague-Dawley rats; 14 days observation): no mortality occurred
autopsy of tissues and organs (Sprague-Dawley rats; end of the study): did not indicate any signs of toxicity
